# Earlier results as cited in patent US7662581B1, “Eg5 co-crystals” (Novartis Vaccines and Diagnostics, Inc., priority 2003, dated 2010).
# What was measured:
# [1] = system: HsEg5; settings: protein level
# [2] = system: DAN-G pancreatic carcinoma cells
smiles,measurement,setting,value
"CC1=C(/C=C/C(C)=C/C=C/C(C)=C/C(=O)O)C(C)(C)CCC1 [ATRA, all trans-retinoic acid]",HsEg5 expression,[1],reduces HsEg5 expression on protein level
same,growth inhibition,[2],significant growth inhibition
